# From patent publication US10179355B2, “Bioremediation enhancing agents and methods of use” (JRW BIOREMEDIATION, LLC, priority 2007, dated 2019)
# Several values for one entry are separate records, joined by “and”; a condition that tells them apart may be missing. Identical values can stand only once.
# What was measured:
# Type in all cases: cell-based, Dehalococcoides and Dehalobacter spp.
# [1] = test system: dechlorinating bacteria known to convert PCE to ethene; test: Set F: Additional Novel Bioremediation Amendments, PCE dechlorination microcosms; conditions: 44 days, nominally 1,000 mg/L
# Method: (§1) The following components were used in the system for bioremediating contaminated ground water microcosms in Examples 2-8: • 160 milliliter (ml) stoppered serum bottles • 100 ml of anaerobic culture medium, groundwater containing an excess of bioavailable phosphorus and nitrogen at 0.5 mM Phosphate and 1 mM ammonium degassed with a nitrogen sparge • Nominally 1 gram of limestone • 19.54 micromoles (pmoles) Perchloroethene (PCE) • An excess of various electron donors were utilized • 3 ml of inoculum containing dechlorinating bacteria known to convert PCE to ethene.
# Set F included microcosms that contained Sodium Gluconate and Sodium Erythorbate. They started at concentrations that were nominally 1,000 mg/L as compared with the sodium lactate control at 7 mM (784 mg/L).
# The objective of this set was to characterize the ability of these two novel bioremediation electron donors to completely dechlorinate PCE and characterize the electron donor utilization efficiency as compared with sodium lactate.
# [2] = test system: dechlorinating bacteria known to convert PCE to ethene; test: Set E: Relative Efficiency of Novel Bioremediation Amendments (electron donors), PCE dechlorination microcosms
# Excerpt: (§2) Sets B, C, D, E, and G further contain figures and tables showing results of the characterization of the Efficiency and the Relative Efficiency of electron donor usage. Efficiency may be defined as the percent of electron donor utilized for dechlorination, and may be calculated by dividing the pmoles of Chloride ion generated by the pmoles of electron donor consumed as measured by either Volatile Fatty Acid (VFA) analysis (Sets B, C, and G) or Chemical Oxygen Demand (COD) analysis (Set D and E). The Relative Efficiency of the electron donor utilization may be defined as the Efficiency of the Electron Donor divided by the Efficiency of the Lactate Control.
# as §1
# The fifth set tested a variety of different electron donors comparing Crude Glycerin, Sodium Citrate, Ethanol and Whey all charged at nominally 1,000 mg/L to lactate at 7 mM (784 mg/L).
# The objective of the study was to test bioremediation amendments for efficacy as electron donors as well as to characterize their Efficiency for dechlorination as compared to the Lactate Control.
# [3] = test system: dechlorinating bacteria known to convert PCE to ethene; test: Set G: Efficiency by VFA Analysis
# Excerpt: as §2
# The method used to calculate the consumption of the electron donor measured the propionate, acetate and formate levels to calculate the consumption of electron donor over time. The lactate and propionate fermented very rapidly resulting in acetate and formate as the only measurable VFAs.
# Set G contained microcosms that tested two different Yeast Metabolites (YM3 and YM4) and a Polysaccharide (PS1) for kinetics and efficiency of electron donor utilization using lactate and molasses as the electron donors. PS1 was also tested as an electron donor by itself.
# Lactate at 11.2 mM (1,000 mg/L) and nutrient amendment at 1% of the electron donor levels (˜10 mg/L). Triplicate bottles received 2 micro liters of PCE and 2 ml of inoculum. The bottles were sampled 5 times over a 138 day period.
# [4] = test system: dechlorinating bacteria known to convert PCE to ethene; test: Set G: Additional Yeast Metabolites and Polysaccharides as Nutrients, PCE dechlorination microcosms (kinetics, Relative Rate, paired t-test); conditions: bottles 1-3
# Excerpt: Certain contaminated materials (or sites) may contain indigenous microbial communities that are sufficient for complete bioremediation of contaminants. For such sites, there is no need to add microbes unless the indigenous microbes are genetically deficient in achieving the desired clean-up goals. For those sites that are microbiologically limited, microorganisms may be added to the contaminated materials (or sites). In one embodiment, the inoculum may be a mixed culture of halo-respiring bacteria that have been enriched to reach an optimal cell density. These mixed cultures of halo-respiring bacteria may be typically obtained from sediment samples from rivers, streams or any waterways. More specifically, the inoculum used in the Examples was originated from a Sangamon River sediment sample (Lodge Park, Piatt County, Ill.) See, e.g., Brennan, R. A., Sanford, R. A. and Werth, C. J. (2006). “Biodegradation of Tetrachloroethene by Chitin Fermentation Products in a Continuous Flow Column System.” Journal of Environ. Engr., June 665-673. This culture had grown for several years on PCE, anaerobic basal salts medium, Wolfe's vitamin solution and various electron donors including lactate (1-2 millimolar (mM)), formate (4 mM) and chitin using the Volatile Interface Transfer Apparatus (VITA) reactor system at the University of Illinois. Brennan, R. A., and Sanford, R. A. (2002). “Continuous steady-state method using Tenax for delivering tetrachloroethene to chlororespiring bacteria.” Appl. Environ. Microbiol., 68(3), 1464-1467. […] Using 16S rRNA gene-specific primers, both Dehalococcoides and Dehalobacter spp. were detected. Quantitative real-time PCR has been used to determine that approximately 1.65×10^7 Dehalococcoides gene copies were present per ml of culture.
# For purpose of this disclosure, each bottle may be started with a certain amount of PCE. At subsequent times each bottle may be sampled for the degradation daughter products of PCE, namely trichloroethene (TCE), cis-dichloroethene (DCE), vinyl chloride (VC) and ethene, etc. Trans-DCE and 1,1-DCE are also daughter products of PCE, but they may not be detectable under the conditions disclosed here.
# The rate of degradation may be determined by calculating the number of pmoles of chloride ions removed from PCE and subsequently from the amounts of the daughter products generated. The calculation may be performed as follows: Chloride (μmoles)=[…]−4×PCE (μmoles)−3×TCE (pmoles)−2×DCE (μmoles)−VC (μmoles)
# The alternative chloride calculation is: Chloride (μmoles)=TCE (μmoles)+2×DCE (μmoles)+3×VC (μmoles)+4×Ethene (μmoles)
# Next, the dechlorination rate may be determined for each bottle at each time by dividing the Chloride generated by the time (days). The data may be then normalized to the lactate control by taking the ratio of Chloride Rate (pmoles/day) and the Lactate Control Chloride Rate (pmoles/day). This ratio is called Relative Rate and is dimensionless.
# As shown in the Examples, a paired t-test has been conducted to calculate the probability that the Relative Rate of one group (i.e. with Nutrient) is greater than the other group (i.e. without Nutrient). The null hypothesis is that the underlying means of the two paired groups are equal. The Probability that one group has higher Relative Rates than the other group is shown in various tables in the Examples.
# as §1, with “ethene. […]” for “ethene.”
molecule,measurement,setting,value
"O=C1O[C@H]([C@H](O)CO)C([O-])=C1O.[Na+] [Na-Erythorbate, Sodium Erythorbate]",Ethene generation (in words),[1],starting to generate Ethene
"O=C([O-])[C@H](O)[C@@H](O)[C@H](O)[C@H](O)CO.[Na+] [Na-Gluconate, Sodium Gluconate]",Ethene generation (in words),[1],starting to generate Ethene
O=C([O-])CC(O)(CC(=O)[O-])C(=O)[O-].[Na+].[Na+].[Na+] [Sodium Citrate],ability to dechlorinate PCE (in words),[2],ability to completely dechlorinate PCE
same,dechlorination speed compared to Lactate Control / other amendments (in words),[2],almost as fast
same,efficient as the Lactate Control (Relative Efficiency),"[2]; electron donor nominally 1,000 mg/L vs lactate 7 mM",84%
inulin [PS1],Estimated % Efficiency,[3]; e^- used dechlorination / e^- used donor,0.283%
same,Relative Efficiency,[3]; relative to Lactate Control = 100%,5%
same,Relative Rate,[4]; time 35 days,0.03 and 0.04 and 0.05
same,Relative Rate,[4]; time 50 days,0.02 and 0.01 (2×)
same,Relative Rate,[4]; time 79 days,0.03 and 0.04 and 0.02
same,Relative Rate,[4]; time 138 days,0.00
